One assay has as its system THP-1 cells. Nature of the assay: TNF-alpha production by macrophages (ELISA). The assay is classed as cell-based, human. Conditions: 1 mg/mL opsonized zymosan, 24 hours, n=4, FIG. 8, read-out: IC50 TNFα production. The procedure: The human macrophage cell line, THP-1 is plated in a 12 well plate such that each well contains 1×10^6 cells in 2 mL of media containing 10% FCS. Opsonized zymosan is prepared by resuspending 20 mg of zymosan A in 2 mL of ddH2O and homogenizing until a uniform suspension is obtained. Homogenized zymosan is pelleted at 250 g and resuspended in 4 mL of human serum for a final concentration of 5 mg/mL. and incubated in a 37° C. water bath for 20 minutes to enable opsonization. Bay 11-7082 is prepared in DMSO at a concentration of 10^−2 M and serially diluted 10-fold to give a range of stock concentrations (10^−8 M to 10^−2 M) (J. Immunol. (2000) 165: 411-418; J. Immunol. (2000) 164: 4804-4811; J. Immunol. Meth. (2000) 235 (1-2): 33-40).
THP-1 cells are stimulated to produce TNFα by the addition of 1 mg/mL opsonized zymosan. […]
After a 24 hour stimulation, supernatants are collected to quantify TNFα production. TNFα concentrations in the supernatants are determined by ELISA using recombinant human TNFα to obtain a standard curve. […] The dilution of Capture Antibody used is lot-specific and is determined empirically. […] Stop Solution (2 NH2SO4) is then added to the wells and a yellow colour reaction is read at 450 nm with λ correction at 570 nm. Mean absorbance is determined from triplicate data readings and the mean background is subtracted. […]
In general terms: ELISA stands for enzyme-linked immunosorbent assay.

The subject of a further assay is human fibroblasts. Nature of the assay: Screening assay for cell proliferation (CYQUANT). To be noted: Fibroblast, 72 hours, n=4 replicate experiments, FIG. 6. Format: cell-based. The procedure:
Fibroblasts at 70-90% confluency are trypsinized, replated at 600 cells/well in media in 96-well plates and allowed to attachment overnight. […] Each drug concentration is tested in triplicate wells.
To terminate the assay, the media is removed by gentle aspiration. […] Plates are incubated at room temperature, protected from light for 3-5 minutes.

Regarding `Cc1ccc(S(=O)(=O)/C=C/C#N)cc1` [Bay 11-7082], the IC50 with THP-1 cells was found to be 810 nM.
`O=C1c2c(O)ccc(O)c2C(=O)c2c(NCCNCCO)ccc(NCCNCCO)c21` [Mitoxantrone, 9,10-Anthracenedione, 1,4-dihydroxy-5,8-bis[[2-[(2-hydroxyethyl)amino]ethyl]amino]-]: the IC50 in the assay on human fibroblasts came to 20 nM.

The IC50 is the concentration needed to halve the response being measured.

The values are drawn from patent US9326934B2, “Drug delivery from rapid gelling polymer composition” (Angiotech International AG, priority 2002, dated 2016).
